According to patent US20250320279A1, “UNGULATE-DERIVED POLYCLONAL IMMUNOGLOBULIN SPECIFIC FOR INFLUENZA VIRUS AND USES THEREOF” (priority 2021, published 2025):

Test system: oseltamivir-resistant influenza A/Hong Kong/2369/2009 (H1N1pdm) H275Y
Design: species or system BALB/c mice
Settings: mouse, in vivo

For CCOC(=O)C1=C[C@@H](OC(CC)CC)[C@H](NC(C)=O)[C@@H](N)C1 [oseltamivir], the “protection from weight loss (mean body weights)” value was “did not protect mice from weight loss”.
